# From PMC12635975, “Peptide-Based Fluorescent Biosensing System for the Detection of the Melanoma Biomarker S100B” (Bioconjugate Chemistry, 2025)
# T1: S100B (Homo sapiens, UniProt P04271)
# T1 construct: purchased Abbexa abx060130
# T1 sequence (P04271 1-92): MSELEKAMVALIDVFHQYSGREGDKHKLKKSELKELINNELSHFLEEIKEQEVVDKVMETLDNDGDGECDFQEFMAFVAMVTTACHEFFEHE
# B1: S100B protein (natural protein)
# chain: T1 sequence (P04271 1-92)
# What was measured:
# [1] = tested on: other S100 proteins; settings: unlike other peptides; ref literature (citation numbers not shown in text); cited from earlier work
# Description: (§1) It interacts with S100B through a combination of hydrophobic and electrostatic interactions, stabilizing the protein structure and enhancing calcium-ion-binding affinity. […] By integrating TRTK12 into advanced optical biosensing systems, ...
# [2] = target: T1, S100B; settings: ref literature (citation numbers not shown in text); read-out: binding affinity K d; cited from earlier work
# Description: as §1
# [3] = target: fluorescently labeled peptide-nucleic acid (PNA) beacon with the peptide TRTK12 as the biorecognition element; assay: other fluorescence titration; beacon fixed at 500 nM, S100B 0-100 nM; donor (5-FAM) emission of the FAM/Dabcyl FRET beacon, excitation 499 nm; 50 mM Tris-HCl pH 7.0, 240 mM NaCl, 20 mM CaCl2; 35 °C; 60 min incubation; two-site binding model fitted to the calibration curve
molecule,measurement,setting,value
TRTKIDWNKILS [TRTK12],cross-reactivity,[1],minimal cross-reactivity with other S100 proteins
same,Kd,[2],~260 nM
B1,half-saturation constant of the high-affinity site (two-site binding model),[3],0.145 nM
same,half-saturation constant of the lower-affinity site (two-site binding model),[3],364 nM
